Laboratory results from patent publication US4208531A, “Synthetic aminoglycosides” (priority 1976, dated 1980).
Converted amounts (≈) assume the structure as drawn. Read-outs that look alike come from different tables or passages of the source. One block for each molecule: values may come before it.

Tests used:
Experiment in all cases: MIC, Steers agar-dilution method, Mueller-Hinton
Assay type in all cases: cell-based
Escherichia coli R 1513 = conditions: R1513, MuellerHinton broth pH 7.2
Description: (§1) Illustrated below is a table showing the minimal inhibitory concentrations (MIC's) of Kanamycin A together with those of one of the trisaccharides synthesized (Example I) against a variety of Gram-positive and Gram-negative bacteria as obtained by the Steers agar-dilution method with Mueller-Hinton agar medium.
(§2) In vitro activity of Kanamycin A and compound (Example LI). MIC's in
(§3) MuellerHinton broth pH 7.2.

[1] = tested on: Micrococcus pyogenes aureus 6539 P; conditions: Staphylococcus aureus, AUREUS6539P
Description: as §1, §2, §3

Proteus mirabilis = tested on: Proteus mirabilis
Description: as §1, §2, §3

Proteus morganii = conditions: Morganella morganii
Description: as §1, §2, §3

Proteus rettgeri = conditions: Providencia rettgeri
Description: as §1, §2, §3

[2] = tested on: Pseudomonas aeruginosa D 15
Description: as §1, §2, §3

[3] = tested on: Pseudomonas aeruginosa I.A.
Description: as §1, §2, §3

[4] = tested on: Pseudomonas aeruginosa s.p.
Description: as §1, §2, §3

Salmonella sui-pestifer = tested on: Salmonella sui-pestifer
Description: as §1, §2, §3

Salmonella tiphymurium = tested on: Salmonella tiphymurium
Description: as §1, §2, §3

[5] = tested on: Staphylococcus pyogenes Smith A; conditions: Staphylococcus aureus
Description: as §1, §2, §3

- MIC (Escherichia coli R 1513): 32 µg/mL
- MIC ([1]; Micrococcus pyogenes aureus 6539 P, MuellerHinton broth pH 7.2, read-out: MIC): 0.4 µg/mL
- MIC (Proteus mirabilis; MuellerHinton broth pH 7.2, read-out: MIC): 0.4 µg/mL
- MIC (Proteus morganii; Proteus morganii, MuellerHinton broth pH 7.2, read-out: MIC): 0.2 µg/mL
- MIC (Proteus rettgeri; Proteus rettgeri, MuellerHinton broth pH 7.2, read-out: MIC): 0.2 µg/mL
- MIC ([2]; D15, Pseudomonas aeruginosa D 15, MuellerHinton broth pH 7.2, read-out: MIC): 8 µg/mL
- MIC ([3]; Pseudomonas aeruginosa I.A., MuellerHinton broth pH 7.2, read-out: MIC): 32 µg/mL
- MIC ([4]; Pseudomonas aeruginosa s.p., MuellerHinton broth pH 7.2, read-out: MIC): 16 µg/mL
- MIC (Salmonella sui-pestifer; Salmonella sui-pestifer, MuellerHinton broth pH 7.2, read-out: MIC): 32 µg/mL
- MIC (Salmonella tiphymurium; Salmonella tiphymurium, MuellerHinton broth pH 7.2, read-out: MIC): 32 µg/mL
- MIC ([5]; Staphylococcus pyogenes Smith A, MuellerHinton broth pH 7.2, read-out: MIC): 0.4 µg/mL
SMILES: NCC1OC(OC2CCC(OC3C(N)CC(N)C(O)C3O)OC2CN)CCC1O (stereo not drawn) [Example LI, 4-O-[4-O-(6-amino-2,3,6-trideoxy-α-O-erythro-hexopyranosyl)-6-amino-2,3,6-trideoxy-αO-erythro-hexopyranosyl]-2-deoxystreptamine disulphate]

SMILES: NCC1OC(OC2C(N)CC(N)C(OC3OC(CO)C(O)C(N)C3O)C2O)C(O)C(O)C1O (stereo not shown) [Kanamycin A]
- MIC (Escherichia coli R 1513): 100 µg/mL (≈ 206 µM)
- MIC ([1]; pH 7.2): 0.8 µg/mL (≈ 1.65 µM)
- MIC (Proteus mirabilis; pH 7.2): 2 µg/mL (≈ 4.13 µM)
- MIC (Proteus morganii; pH 7.2): 0.8 µg/mL (≈ 1.65 µM)
- MIC (Proteus rettgeri; pH 7.2): 0.4 µg/mL (≈ 0.826 µM)
- MIC ([2]; Pseudomonas aeruginosa, D15, pH 7.2): 25 µg/mL (≈ 51.6 µM)
- MIC ([3]; Pseudomonas aeruginosa, pH 7.2): 100 µg/mL (≈ 206 µM)
- MIC ([4]; Pseudomonas aeruginosa, pH 7.2): 100 µg/mL (≈ 206 µM)
- MIC (Salmonella sui-pestifer; Salmonella, pH 7.2): 32 µg/mL (≈ 66 µM)
- MIC (Salmonella tiphymurium; Salmonella, pH 7.2): 100 µg/mL (≈ 206 µM)
- MIC ([5]; pH 7.2): 0.8 µg/mL (≈ 1.65 µM)
